Experimental data published in ChEMBL document CHEMBL3396966, “In vitro studies of antimicrobial activity of Gly-His-Lys conjugates as potential and promising candidates for therapeutics in skin and tissue infections” (2015).
≈ marks a conversion by molar mass, not a printed value. Each block holds one compound with its values, some of them ahead of it. Calls of active or inactive are those of the source. No cut-off for these calls is given here. Non-standard residues stand in square brackets, D forms with d. Residues, ends and D or L forms follow the SMILES beside them. ξ: configuration not given here. *: point of attachment. Stearoyl = CCCCCCCCCCCCCCCCCC(=O)*; Palmitoyl = CCCCCCCCCCCCCCCC(=O)*; Lauroyl = CCCCCCCCCCCC(=O)*; ξHyp = O=C(O)C1CC(O)CN1

Legend:
Escherichia coli [1] = experiment: Bactericidal activity against Escherichia coli up to 18 hrs by time-kill assay; type: functional, organism-based
Escherichia coli [2] = experiment: Antimicrobial activity against Escherichia coli after 16 to 20 hrs by broth micro-dilution method; type: functional, organism-based
Pseudomonas aeruginosa [3] = experiment: Antimicrobial activity against Pseudomonas aeruginosa PCM 2562 (ATCC9027) after 16 to 20 hrs by broth micro-dilution method; type: functional
Staphylococcus aureus [4] = experiment: Antimicrobial activity against Staphylococcus aureus after 16 to 20 hrs by broth micro-dilution method; type: functional, organism-based
Escherichia coli [5] = experiment: Antimicrobial activity against Escherichia coli PCM 2561 (ATCC 8739, DSM 1576) after 16 to 20 hrs by broth micro-dilution method; type: functional
Escherichia coli [6] = experiment: Antimicrobial activity against Escherichia coli DSM11250 (PCM2560, NTCC 10538) after 16 to 20 hrs by broth micro-dilution method; type: functional
Staphylococcus aureus [7] = experiment: Antimicrobial activity against Staphylococcus aureus PCM 2602 (ATCC 6538) after 16 to 20 hrs by broth micro-dilution method; type: functional
Staphylococcus aureus [8] = experiment: Antimicrobial activity against Staphylococcus aureus PCM 2054 (ATCC 25923) after 16 to 20 hrs by broth micro-dilution method; type: functional
Staphylococcus aureus [9] = experiment: Bactericidal activity against Staphylococcus aureus at 100 ug/ml up to 18 hrs by time-kill assay; type: functional, organism-based
Pseudomonas aeruginosa [10] = experiment: Bactericidal activity against Pseudomonas aeruginosa PCM 2562 (ATCC9027) at 4 times MIC up to 18 hrs by broth micro-dilution method; type: functional, organism-based
Staphylococcus aureus [11] = experiment: Bactericidal activity against Staphylococcus aureus at 6 times MIC up to 18 hrs by time-kill assay; type: functional, organism-based
Candida albicans [12] = experiment: Fungicidal activity against Candida albicans at MIC by time-kill assay; type: functional, organism-based
Staphylococcus aureus [13] = experiment: Bactericidal activity against Staphylococcus aureus at 4 times MIC up to 18 hrs by time-kill assay; type: functional, organism-based
Candida albicans [14] = experiment: Fungicidal activity against Candida albicans at 2 times MIC by time-kill assay; type: functional, organism-based
Pseudomonas aeruginosa [15] = experiment: Bacteriostatic activity against Pseudomonas aeruginosa PCM 2562 (ATCC9027) after 16 to 20 hrs by broth micro-dilution method; type: functional, organism-based
Staphylococcus aureus [16] = experiment: Bacteriostatic activity against Staphylococcus aureus after 16 to 20 hrs by broth micro-dilution method; type: functional, organism-based
Staphylococcus aureus [17] = experiment: Bactericidal activity against Staphylococcus aureus at 0.5 to 1 times MIC up to 18 hrs by time-kill assay; type: functional, organism-based
Candida albicans [18] = experiment: Fungicidal activity against Candida albicans at 2 to 4 times MIC by time-kill assay; type: functional, organism-based
[19] = Pseudomonas aeruginosa, PCM 2562 (ATCC9027)
[20] = Escherichia coli, PCM 2561 (ATCC 8739, DSM 1576)
[21] = Escherichia coli, DSM11250 (PCM2560, NTCC 10538)
[22] = Staphylococcus aureus, PCM 2602 (ATCC 6538)
[23] = Staphylococcus aureus, PCM 2054 (ATCC 25923)

SMILES: CSCC[C@H](NC(=O)CN)C(=O)N[C@@H](CCCCN)C(=O)O (H-Gly-Met-Lys-OH)
Activity (Escherichia coli [1]): Active
Activity (Escherichia coli [2]): inactive

MIC (Pseudomonas aeruginosa [3]; [19]): 3.9 µg/mL (≈ 8.78 µM)
MIC50 (Pseudomonas aeruginosa [3]; [19]): 3.91 µg/mL (≈ 8.8 µM)
MIC90 (Pseudomonas aeruginosa [3]; [19]): 7.81 µg/mL (≈ 17.6 µM)
SMILES: CN(C)[C@@H]1C(O)=C(C(N)=O)C(=O)[C@@]2(O)C(O)=C3C(=O)c4c(O)cccc4[C@@](C)(O)[C@H]3C[C@@H]12 [TETRACYCLINE]
MBC50 (Pseudomonas aeruginosa [3]): 31.3 µg/mL (≈ 70.4 µM)
MBC90 (Pseudomonas aeruginosa [3]): 62.5 µg/mL (≈ 141 µM)
MBC (Pseudomonas aeruginosa [3]; [19]): 31.3 µg/mL (≈ 70.4 µM)

SMILES: CSCC[C@H](NC(=O)C1CC(O)CN1C(=O)CN)C(=O)N[C@@H](CCCCN)C(=O)O (stereo partly specified) (H-G[ξHyp]MK-OH)
Activity (Escherichia coli [1]): Active
Activity (Escherichia coli [2]): inactive
Activity (Staphylococcus aureus [4]): Active

MIC (Escherichia coli [5]; [20]): 3.9 µg/mL (≈ 8.05 µM)
MIC50 (Escherichia coli [5]; [20]): 7.8 µg/mL (≈ 16.1 µM)
MIC90 (Escherichia coli [5]; [20]): 15.6 µg/mL (≈ 32.2 µM)
MIC (Escherichia coli [6]; [21]): 3.9 µg/mL (≈ 8.05 µM)
MIC50 (Escherichia coli [6]; [21]): 7.8 µg/mL (≈ 16.1 µM)
MIC90 (Escherichia coli [6]; [21]): 15.6 µg/mL (≈ 32.2 µM)
MIC (Staphylococcus aureus [7]; [22]): 2.9 µg/mL (≈ 5.99 µM)
MIC50 (Staphylococcus aureus [7]; [22]): 2.9 µg/mL (≈ 5.99 µM)
MIC90 (Staphylococcus aureus [7]; [22]): 5.8 µg/mL (≈ 12 µM)
MIC (Staphylococcus aureus [8]; [23]): 2.9 µg/mL (≈ 5.99 µM)
MIC50 (Staphylococcus aureus [8]; [23]): 2.9 µg/mL (≈ 5.99 µM)
MIC90 (Staphylococcus aureus [8]; [23]): 5.8 µg/mL (≈ 12 µM)
SMILES: NC[C@H]1O[C@H](O[C@H]2[C@H](O)[C@@H](O[C@H]3O[C@H](CO)[C@@H](O)[C@H](N)[C@H]3O)[C@H](N)C[C@@H]2N)[C@H](O)[C@@H](O)[C@@H]1O [KANAMYCIN]
MBC50 (Escherichia coli [5]): 15.6 µg/mL (≈ 32.2 µM)
MBC90 (Escherichia coli [5]): 31.3 µg/mL (≈ 64.6 µM)
MBC (Escherichia coli [5]; [20]): 7.8 µg/mL (≈ 16.1 µM)
MBC50 (Escherichia coli [6]): 15.6 µg/mL (≈ 32.2 µM)
MBC90 (Escherichia coli [6]): 31.3 µg/mL (≈ 64.6 µM)
MBC (Escherichia coli [6]; [21]): 7.8 µg/mL (≈ 16.1 µM)
MBC50 (Staphylococcus aureus [7]): 3.9 µg/mL (≈ 8.05 µM)
MBC90 (Staphylococcus aureus [7]): 7.8 µg/mL (≈ 16.1 µM)
MBC (Staphylococcus aureus [7]; [22]): 11.7 µg/mL (≈ 24.1 µM)
MBC50 (Staphylococcus aureus [8]): 3.9 µg/mL (≈ 8.05 µM)
MBC90 (Staphylococcus aureus [8]): 7.8 µg/mL (≈ 16.1 µM)
MBC (Staphylococcus aureus [8]; [23]): 11.7 µg/mL (≈ 24.1 µM)

MIC50 (Pseudomonas aeruginosa [3]; [19]): 375 µg/mL (≈ 677 µM)
MIC90 (Pseudomonas aeruginosa [3]; [19]): 500 µg/mL (≈ 903 µM)
MIC50 (Escherichia coli [5]; [20]): 62.5 µg/mL (≈ 113 µM)
MIC90 (Escherichia coli [5]; [20]): 125 µg/mL (≈ 226 µM)
MIC50 (Escherichia coli [6]; [21]): 31.3 µg/mL (≈ 56.5 µM)
MIC90 (Escherichia coli [6]; [21]): 62.5 µg/mL (≈ 113 µM)
MIC50 (Staphylococcus aureus [7]; [22]): 31.3 µg/mL (≈ 56.5 µM)
MIC90 (Staphylococcus aureus [7]; [22]): 31.3 µg/mL (≈ 56.5 µM)
MIC50 (Staphylococcus aureus [8]; [23]): 31.3 µg/mL (≈ 56.5 µM)
MIC90 (Staphylococcus aureus [8]; [23]): 62.5 µg/mL (≈ 113 µM)
SMILES: CCCCCCCCCCCCCCCC(=O)NCC(=O)N1CC(O)CC1C(=O)N[C@@H](CCCCN)C(N)=O (stereo partly specified) (Palmitoyl-Gly-[ξHyp]-Lys-NH2)
Activity (Staphylococcus aureus [9]): Active
MBC50 (Pseudomonas aeruginosa [3]): 1500 µg/mL (≈ 2710 µM)
MBC90 (Pseudomonas aeruginosa [3]): 2000 µg/mL (≈ 3610 µM)
Activity (Pseudomonas aeruginosa [10]): Active
Activity (Staphylococcus aureus [11]): Active
Activity (Candida albicans [12]): Active
Activity (Staphylococcus aureus [13]): Active
Activity (Candida albicans [14]): Active
MBC50 (Staphylococcus aureus [7]): 93.7 µg/mL (≈ 169 µM)
MBC90 (Staphylococcus aureus [7]): 125 µg/mL (≈ 226 µM)
MBC50 (Staphylococcus aureus [8]): 93.7 µg/mL (≈ 169 µM)
MBC90 (Staphylococcus aureus [8]): 125 µg/mL (≈ 226 µM)

SMILES: CC(=O)NCC(=O)NCC(=O)N1CC(O)CC1C(=O)N[C@@H](CCCCN)C(=O)O (stereo partly specified) (Ac-GG[ξHyp]K-OH)
Activity (Escherichia coli [1]): Active

SMILES: NCCCC[C@H](NC(=O)C1CC(O)CN1C(=O)CN)C(=O)O (stereo partly specified) (H-Gly-[ξHyp]-Lys-OH)
Activity (Pseudomonas aeruginosa [15]): Active
Activity (Staphylococcus aureus [16]): Active
Activity (Escherichia coli [2]): Active
Activity (Staphylococcus aureus [4]): Active

SMILES: CCCCCCCCCCCC(=O)NCC(=O)NCC(=O)N1CC(O)CC1C(=O)N[C@@H](CCCCN)C(=O)O (stereo partly specified) (Lauroyl-GG[ξHyp]K-OH)
Activity (Escherichia coli [1]): Active
Activity (Staphylococcus aureus [17]): Active

SMILES: CCCCCCCCCCCCCCCCCC(=O)NCC(=O)NCC(=O)N1CC(O)CC1C(=O)N[C@@H](CCCCN)C(=O)O (stereo partly specified) (Stearoyl-GG[ξHyp]K-OH)
Activity (Candida albicans [18]): Active
Activity (Candida albicans [14]): Active
